“Also recorded” adds a separate entry of the source. Where two headings read alike, the source gives them in different places.
Assays:
TmoS [1] = biological target: T1, TmoS (Ectopseudomonas mendocina, UniProt Q8KIY1); type: biochemical, Pseudomonas mendocina KR1
TmoS [2] = biological target: T1, TmoS; test: Isothermal titration calorimetry of purified TmoS with effector molecules; type: binding, Pseudomonas mendocina KR1; details: for TΔS / ΔH / affinity / binding to TmoS, in words: TmoS
TmoS [3] = test: as above; type: binding, Pseudomonas mendocina KR1; details: TodS values from Busch et al., 2007
TodS = details: agonist / antagonist classification, ref Busch et al., 2007, cited from earlier work
CitA = details: read-out: KD for CitA; determined by ITC; ref Kaspar et al., 1999; cited from earlier work
T4MO = T4MO substrate; ref Mitchell et al., 2002; cited from earlier work
[4] = 100 µM effector (saturating), 30 min, 10 µM TmoS, 4°C
[5] = ITC, typically 10 µM TmoS titrated with 500 µM effector, pH 7.5
[6] = 100 µM effector, time course (Fig. 4B and C)

T1 sequence (Q8KIY1 whole entry): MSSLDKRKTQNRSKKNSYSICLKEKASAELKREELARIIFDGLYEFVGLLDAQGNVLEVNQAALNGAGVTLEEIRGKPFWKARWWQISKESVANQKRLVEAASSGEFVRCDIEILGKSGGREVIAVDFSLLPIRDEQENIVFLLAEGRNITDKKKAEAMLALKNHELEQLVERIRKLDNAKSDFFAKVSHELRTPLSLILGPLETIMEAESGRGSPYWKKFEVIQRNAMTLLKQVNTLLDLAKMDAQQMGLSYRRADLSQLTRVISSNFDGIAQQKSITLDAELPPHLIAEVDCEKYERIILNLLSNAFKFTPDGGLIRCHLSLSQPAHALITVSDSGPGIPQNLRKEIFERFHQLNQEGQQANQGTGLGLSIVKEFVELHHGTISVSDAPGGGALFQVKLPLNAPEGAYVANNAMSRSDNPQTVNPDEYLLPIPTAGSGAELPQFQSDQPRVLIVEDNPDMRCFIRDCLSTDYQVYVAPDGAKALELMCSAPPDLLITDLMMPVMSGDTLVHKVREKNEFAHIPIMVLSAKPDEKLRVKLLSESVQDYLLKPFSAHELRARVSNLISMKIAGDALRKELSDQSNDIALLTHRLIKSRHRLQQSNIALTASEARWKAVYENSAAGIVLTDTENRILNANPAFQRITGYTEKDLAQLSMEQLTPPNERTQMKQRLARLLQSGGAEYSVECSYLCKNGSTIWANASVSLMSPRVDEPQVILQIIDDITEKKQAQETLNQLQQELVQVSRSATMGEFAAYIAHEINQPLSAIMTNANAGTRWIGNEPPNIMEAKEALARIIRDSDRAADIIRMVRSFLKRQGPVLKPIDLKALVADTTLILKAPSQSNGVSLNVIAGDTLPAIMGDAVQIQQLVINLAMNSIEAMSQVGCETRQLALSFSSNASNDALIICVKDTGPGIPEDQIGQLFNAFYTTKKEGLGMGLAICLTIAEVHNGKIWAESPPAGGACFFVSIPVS

| Compound | TΔS (TmoS [2]; ITC) | ΔH (TmoS [2]; ITC) | affinity for TmoS relative to TodS (TmoS [3]) | Effect on TodS (TodS) | affinity / binding to TmoS, in words (TmoS [2]; ITC) | Kd (TmoS [2]) [nM] | further results |
| --- | --- | --- | --- | --- | --- | --- | --- |
| CCc1ccccc1 [Ethylbenzene] | 4.1 ± 0.1 kcal/mol | -3.5 ± 0.1 kcal/mol | tighter | Agonist |  |  | TmoS phosphorylation state in presence of effector versus control (TmoS [1]; [4]): increased phosphorylation; Kd (TmoS [2]; KD, ITC, typically 10 µM TmoS titrated with 500 µM effector, pH 7.5): 1560 ± 100 nM |
| C1CCCCC1 [cyclohexane] | No binding | No binding |  | No binding | failed to bind |  | KA (TmoS [2]; [5]): No binding; KD (TmoS [2]; [5]): No binding |
| Cc1ccc(C)c(C)c1 [1,2,4 Trimethylbenzene] | 5.6 ± 0.2 kcal/mol | -1.5 ± 0.2 kcal/mol |  | Antagonist | tight binding | 3460 ± 500 | TmoS phosphorylation state in presence of effector versus control (TmoS [1]): very similar to the control; also recorded: failed to increase |
| Cc1cccc(Cl)c1 [m‐Chlorotoluene] | 1.5 ± 0.8 kcal/mol | -5.9 ± 0.9 kcal/mol |  | Agonist |  | 2070 ± 600 |  |
| Clc1ccccc1 [Chlorobenzene] |  | -6.9 ± 0.3 kcal/mol | comparable | Agonist |  | 1250 ± 70 | TmoS phosphorylation state in presence of effector versus control (TmoS [1]): increased phosphorylation |
| O=[N+]([O-])c1ccccc1 [Nitrobenzene] | 4.5 ± 0.1 kcal/mol | -4.1 ± 0.1 kcal/mol | 29 times | Agonist | nanomolar range | 230 ± 30 |  |
| O=C(O)CC(O)(CC(=O)O)C(=O)O [citrate] |  |  |  |  |  |  | Kd (CitA): 5.5 µM |
| Cc1cccc(C)c1 [m‐xylene] | 1.1 ± 0.6 kcal/mol |  |  | Agonist |  | 710 ± 90 |  |
| chlorotoluene |  |  |  |  |  |  | stimulation of TmoS autokinase activity in kinetics experiment (TmoS [1]; [6]): significantly inferior |
| Cc1ccccc1 [Toluene] | 2.4 ± 0.1 kcal/mol | -6.5 ± 0.1 kcal/mol |  |  |  |  | Km (T4MO): 4 µM; TmoS phosphorylation state in presence of effector versus control (TmoS [1]; [4]): most pronounced increase; TmoS phosphorylation state in presence of effector versus control (TmoS [1]; 100 µM effector (saturating), 30 min, 10 µM TmoS, 4°C, listed as toluene): increased phosphorylation; time of maximal TmoS phosphorylation (TmoS [1]; 100 µM effector, kinetics of autophosphorylation): 40 min; stimulation of TmoS autokinase activity in kinetics experiment (TmoS [1]; [6]): most pronounced increase |
| Cc1ccc(C)cc1 [p‐xylene] | 4.9 ± 0.29 kcal/mol | -3.4 ± 0.3 kcal/mol |  | Agonist |  | 460 ± 50 |  |
| Cc1ccccc1C [o‐xylene] |  | -8.9 ± 0.1 kcal/mol |  | Antagonist |  | 290 ± 10 | TmoS phosphorylation state in presence of effector versus control (TmoS [1]; [4]): very similar to the control; also recorded: failed to increase; also recorded: did not trigger an increase; Effect on TodS (TodS; listed as o‐ xylene): antagonists |
| C=Cc1ccccc1 [Styrene] | 3.3 ± 0.3 kcal/mol | -4.8 ± 0.3 kcal/mol | comparable | Agonist | nanomolar range | 810 ± 100 |  |
| Cc1ccccc1Cl [o‐Chlorotoluene] | 2.4 ± 0.9 kcal/mol | -5.1 ± 0.9 kcal/mol |  | Antagonist |  |  | TmoS phosphorylation state in presence of effector versus control (TmoS [1]; [4]): very similar to the control; also recorded: failed to increase; also recorded: did not trigger an increase; Kd (TmoS [2]; [5]): 2140 ± 400 nM; Effect on TodS (TodS; listed as o‐chlorotoluene): antagonists |
| Cc1ccc(Cl)cc1 [p‐Chlorotoluene] | 5.3 ± 0.1 kcal/mol | -2.7 ± 0.1 kcal/mol |  | Agonist | nanomolar range |  |  |
| c1ccccc1 [Benzene] | 3.6 ± 0.1 kcal/mol | -5.3 ± 0.1 kcal/mol | around 4.5 times | Agonist | nanomolar range | 170 | TmoS phosphorylation state in presence of effector versus control (TmoS [1]): increased phosphorylation; stimulation of TmoS autokinase activity in kinetics experiment (TmoS [1]): significantly inferior |
